Where two headings read alike, the source gives them in different places.
Tests used:
PRMT5 [1] = biological target: T1, PRMT5 (Homo sapiens, UniProt O14744); assay: PRMT5 biochemical IC50 assay with MTA as cofactor
T1 construct: purchased Viva (custom protein)

[2] = tested on: HAP1 MTAP-intact cell line; assay: SDMA in-cell western assay, HAP1 MTAP-intact; format: cell-based; conditions: Homo sapiens
Procedure, shortened: (§1)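 IC50 values come from SDMA signal quantified by in-cell western in two HAP1 lines, one with native MTAP levels and one lacking MTAP.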

[3] = tested on: HAP1 MTAP-deleted cell line; assay: Viability assay, MTAP-deleted cell line; format: cell-based; conditions: Homo sapiens
Description: Table 1 additionally indicates IC50 values in a viability assay for the MTAP-deleted cell line (column 10), indicating the effect of treatment with compound on cell survival.

PRMT5 [4] = biological target: T1, PRMT5; assay: PRMT5 biochemical IC50 assay with no cofactor
Description: Table 1 indicates IC50 values (μM) against PRMT5 for exemplary compounds in the presence of SAM as cofactor, with no cofactor, and with MTA as cofactor, respectively (columns 4-6). […] Ki values can be calculated from the IC50 values as described in the Examples section. As detailed in the Examples section, for the assay performed in the presence of SAM, IC50=Ki×1.5 (Ki=IC50/1.5).

[5] = tested on: HAP1 MTAP-deleted cell line; assay: SDMA in-cell western assay, HAP1 MTAP-deleted; format: cell-based; conditions: for IC50: Homo sapiens; for MTAP intact/deleted ratio: IC50 ratio HAP1 MTAP-intact vs HAP1 MTAP-deleted, SDMA in-cell western
Procedure, shortened: as §1

PRMT5 [6] = biological target: T1, PRMT5; assay: PRMT5 biochemical IC50 assay with SAM as cofactor
[7] = PRMT5, MTA as cofactor, read-out: MTA IC50
[8] = HAP1, SDMA in-cell western, HAP1 MTAP-intact, read-out: MTAP HAP1 intact IC50
[9] = HAP1, viability assay, MTAP-deleted cell line, read-out: HAP1 MTAP deleted viability
[10] = PRMT5, no cofactor, read-out: No Cofactor/rel IC50
[11] = HAP1, SDMA in-cell western, HAP1 MTAP-deleted, read-out: HAP1 MTAP deleted IC50
[12] = PRMT5, SAM as cofactor, read-out: SAM IC50

T1 sequence (O14744 whole entry): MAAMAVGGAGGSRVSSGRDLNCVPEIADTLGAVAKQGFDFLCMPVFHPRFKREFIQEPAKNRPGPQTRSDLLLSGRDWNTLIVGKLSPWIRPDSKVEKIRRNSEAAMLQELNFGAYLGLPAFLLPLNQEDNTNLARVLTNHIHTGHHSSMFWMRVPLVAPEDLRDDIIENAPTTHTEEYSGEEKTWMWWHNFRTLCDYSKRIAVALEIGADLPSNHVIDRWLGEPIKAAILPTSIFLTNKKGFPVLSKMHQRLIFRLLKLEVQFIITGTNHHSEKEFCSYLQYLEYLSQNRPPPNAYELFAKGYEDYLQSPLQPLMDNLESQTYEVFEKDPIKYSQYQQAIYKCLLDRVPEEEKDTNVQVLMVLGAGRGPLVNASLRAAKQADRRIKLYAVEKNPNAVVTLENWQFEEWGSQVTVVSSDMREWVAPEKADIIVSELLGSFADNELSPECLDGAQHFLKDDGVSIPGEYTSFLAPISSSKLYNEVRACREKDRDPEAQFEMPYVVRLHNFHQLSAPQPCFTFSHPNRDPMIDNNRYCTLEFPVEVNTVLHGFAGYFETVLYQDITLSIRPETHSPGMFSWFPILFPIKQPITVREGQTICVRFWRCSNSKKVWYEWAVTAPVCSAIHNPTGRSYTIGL
T1 sequence (Q9BQA1 whole entry partner): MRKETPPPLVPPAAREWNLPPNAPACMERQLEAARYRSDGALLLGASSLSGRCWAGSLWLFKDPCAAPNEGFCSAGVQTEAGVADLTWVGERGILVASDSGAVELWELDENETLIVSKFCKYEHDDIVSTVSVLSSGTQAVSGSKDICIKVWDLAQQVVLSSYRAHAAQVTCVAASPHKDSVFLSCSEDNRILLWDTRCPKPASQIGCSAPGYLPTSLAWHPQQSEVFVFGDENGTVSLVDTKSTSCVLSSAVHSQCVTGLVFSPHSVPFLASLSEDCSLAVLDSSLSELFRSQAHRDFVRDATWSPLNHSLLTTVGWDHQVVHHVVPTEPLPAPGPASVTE

| SMILES | IC50 (PRMT5 [1]; [7]) [nM] | IC50 [2, 8] [nM] | IC50 [3, 9] [nM] | IC50 (PRMT5 [4]; [10]) [nM] | IC50 [5, 11] [nM] | MTAP intact/deleted ratio [5] | IC50 (PRMT5 [6]; [12]) [nM] | IC50 (PRMT5 [1]; MTA IC50, PRMT5, MTA as cofactor) [nM] | IC50 ([2]; HAP1, read-out: MTAP HAP1 intact IC50) [nM] | IC50 ([3]; HAP1, read-out: HAP1 MTAP deleted viability) [nM] | IC50 (PRMT5 [4]; No Cofactor/rel IC50, PRMT5, no cofactor) [nM] | IC50 ([5]; HAP1, read-out: HAP1 MTAP deleted IC50) [nM] | IC50 (PRMT5 [6]; SAM IC50, PRMT5, SAM as cofactor) [nM] |
| --- | --- | --- | --- | --- | --- | --- | --- | --- | --- | --- | --- | --- | --- |
| CCc1cc(NC(=O)C(=O)N2C[C@@H](C)CC[C@@H]2c2ccc3sc([C@@H]4C[C@H]5CN(C)C[C@H]54)nc3c2)cnc1N [Compound 1147, N-(6-amino-5-ethylpyridin-3-yl)-2-((5S)-5-methyl-2-(2-(3-methyl-3-azabicyclo[3.2.0]heptan-6-yl)benzo[d]thiazol-5-yl)piperidin-1-yl)-2-oxoacetamide] | < 50 | < 100 | < 1000 | < 50 | < 100 | A (an IC50 ratio greater than or equal to 10 fold) | < 50 | – | – | – | – | – | – |
| CCc1cc(NC(=O)C(=O)N2C[C@@H](C)CC[C@@H]2c2ccc3sc(C4CN(C)C4)nc3c2)cnc1N [Compound 1151, N-(6-amino-5-ethylpyridin-3-yl)-2-((2R,5S)-5-methyl-2-(2-(1-methylazetidin-3-yl)benzo[d]thiazol-5-yl)piperidin-1-yl)-2-oxoacetamide] | < 50 | < 100 | < 1000 | < 50 | < 100 | A (an IC50 ratio greater than or equal to 10 fold) | < 50 | – | – | – | – | – | – |
| CCc1cc(NC(=O)C(=O)N2C[C@@H](C)CC[C@@H]2c2ccc3sc(CO)nc3c2)cnc1N [Compound 1152, N-(6-amino-5-ethylpyridin-3-yl)-2-((2R,5S)-2-(2-(hydroxymethyl)benzo[d]thiazol-5-yl)-5-methylpiperidin-1-yl)-2-oxoacetamide] | < 50 | 100 to 1000 | < 1000 | < 50 | < 100 | A (an IC50 ratio greater than or equal to 10 fold) | 50 to 500 | – | – | – | – | – | – |
| COc1ncc(NC(=O)C(=O)N2C[C@@H](C)CC[C@@H]2c2ccc3sc(C4(CN(C)C)COC4)nc3c2)cc1C(N)=O [Compound 1155, 5-(2-((2R,5S)-2-(2-(3-((dimethylamino)methyl)oxetan-3-yl)benzo[d]thiazol-5-yl)-5-methylpiperidin-1-yl)-2-oxoacetamido)-2-methoxynicotinamide] | < 50 | 100 to 1000 | < 1000 | < 50 | < 100 | A (an IC50 ratio greater than or equal to 10 fold) | < 50 | – | – | – | – | – | – |
| CCc1cc(NC(=O)C(=O)N2C[C@@H](C)CC[C@@H]2c2ccc3sc(C4(F)CCN(C)CC4)nc3c2)cnc1N [Compound 1160, N-(6-amino-5-ethylpyridin-3-yl)-2-((2R,5S)-2-(2-(4-fluoro-1-methylpiperidin-4-yl)benzo[d]thiazol-5-yl)-5-methylpiperidin-1-yl)-2-oxoacetamide] | < 50 | < 100 | < 1000 | < 50 | < 100 | A (an IC50 ratio greater than or equal to 10 fold) | < 50 | – | – | – | – | – | – |
| COc1ncc(NC(=O)C(=O)N2C[C@@H](C)CC[C@@H]2c2ccc3sc(CN(C)C)nc3c2)cc1C(N)=O [Compound 1162, 5-(2-((2R,5S)-2-(2-((dimethylamino)methyl)benzo[d]thiazol-5-yl)-5-methylpiperidin-1-yl)-2-oxoacetamido)-2-methoxynicotinamide] | < 50 | 100 to 1000 | < 1000 | < 50 | < 100 | A (an IC50 ratio greater than or equal to 10 fold) | 50 to 500 | – | – | – | – | – | – |
| CCN1CCC(c2nc3cc([C@H]4CC[C@H](C)CN4C(=O)C(=O)Nc4cnc(OC)c(C(N)=O)c4)ccc3s2)CC1 [Compound 1164, 5-(2-((2R,5)-2-(2-(1-ethylpiperidin-4-yl)benzo[d]thiazol-5-yl)-5-methylpiperidin-1-yl)-2-oxoacetamido)-2-methoxynicotinamide] | < 50 | 100 to 1000 | < 1000 | < 50 | < 100 | A (an IC50 ratio greater than or equal to 10 fold) | < 50 | – | – | – | – | – | – |
| CCc1cc(NC(=O)C(=O)N2C[C@@H](C)CC[C@@H]2c2ccc3sc(C4(CN(C)C)COC4)nc3c2)cnc1N [Compound 1165, N-(6-amino-5-ethylpyridin-3-yl)-2-((2R,5S)-2-(2-(3-((dimethylamino)methyl)oxetan-3-yl)benzo[d]thiazol-5-yl)-5-methylpiperidin-1-yl)-2-oxoacetamide] | < 50 | < 100 | < 1000 | < 50 | < 100 | B (an IC50 ratio greater than or equal to 3 fold but lower than 10 fold) | 50 to 500 | – | – | – | – | – | – |
| CCc1cc(NC(=O)C(=O)N2C[C@@H](C)CC[C@@H]2c2ccc3sc(C4(C)CCN(C)CC4)nc3c2)cnc1N [Compound 1171, N-(6-amino-5-ethylpyridin-3-yl)-2-((2R,5S)-2-(2-(1,4-dimethylpiperidin-4-yl)benzo[d]thiazol-5-yl)-5-methylpiperidin-1-yl)-2-oxoacetamide] | – | – | – | – | – | A (an IC50 ratio greater than or equal to 10 fold) | – | < 50 | < 100 | < 1000 | < 50 | < 100 | < 50 |
| CCc1cc(NC(=O)C(=O)N2C[C@@H](C)CC[C@@H]2c2ccc3sc(C4CCN(CCF)CC4)nc3c2)cnc1N [Compound 1174, N-(6-amino-5-ethylpyridin-3-yl)-2-((2R,5S)-2-(2-(1-(2-fluoroethyl)piperidin-4-yl)benzo[d]thiazol-5-yl)-5-methylpiperidin-1-yl)-2-oxoacetamide] | < 50 | < 100 | < 1000 | < 50 | < 100 | A (an IC50 ratio greater than or equal to 10 fold) | < 50 | – | – | – | – | – | – |
| CCc1cc(NC(=O)C(=O)N2C[C@@H](C)CC[C@@H]2c2cccc(OCCN(C)C)c2)cnc1N [Compound 1175, N-(6-amino-5-ethylpyridin-3-yl)-2-((2R,5S)-2-(3-(2-(dimethylamino)ethoxy)phenyl)-5-methylpiperidin-1-yl)-2-oxoacetamide] | < 50 | 100 to 1000 | < 1000 | < 50 | < 100 | A (an IC50 ratio greater than or equal to 10 fold) | < 50 | – | – | – | – | – | – |
| CCc1cc(NC(=O)C(=O)N2C[C@@H](C)CC[C@@H]2c2cccc(OC[C@@H]3CCN(C)C3)c2)cnc1N [Compound 1178, N-(6-amino-5-ethylpyridin-3-yl)-2-((2R,5S)-5-methyl-2-(3-(((R)-1-methylpyrrolidin-3-yl)methoxy)phenyl)piperidin-1-yl)-2-oxoacetamide] | < 50 | < 100 | < 1000 | < 50 | < 100 | A (an IC50 ratio greater than or equal to 10 fold) | < 50 | – | – | – | – | – | – |
| CCc1cc(NC(=O)C(=O)N2C[C@@H](C)CC[C@@H]2c2cccc(OC[C@H]3CCN(C)C3)c2)cnc1N [Compound 1179, N-(6-amino-5-ethylpyridin-3-yl)-2-((2R,5S)-5-methyl-2-(3-(((S)-1-methylpyrrolidin-3-yl)methoxy)phenyl)piperidin-1-yl)-2-oxoacetamide] | < 50 | < 100 | < 1000 | < 50 | < 100 | A (an IC50 ratio greater than or equal to 10 fold) | < 50 | – | – | – | – | – | – |
| Cc1cc(NC(=O)C(=O)N2C[C@@H](C)CC[C@@H]2c2ccc3sc(C4CCN(C5CC5)CC4)nc3c2)cnc1N [Compound 1181, N-(6-amino-5-methylpyridin-3-yl)-2-((2R,5S)-2-(2-(1-cyclopropylpiperidin-4-yl)benzo[d]thiazol-5-yl)-5-methylpiperidin-1-yl)-2-oxoacetamide] | < 50 | < 100 | < 1000 | < 50 | < 100 | B (an IC50 ratio greater than or equal to 3 fold but lower than 10 fold) | < 50 | – | – | – | – | – | – |
| Cc1cc(NC(=O)C(=O)N2C[C@@H](C)CC[C@@H]2c2ccc3sc(-c4nccn4C)nc3c2)cnc1N [Compound 1186, N-(6-amino-5-methylpyridin-3-yl)-2-((2R,5S)-5-methyl-2-(2-(1-methyl-1H-imidazol-2-yl)benzo[d]thiazol-5-yl)piperidin-1-yl)-2-oxoacetamide] | < 50 | < 100 | < 1000 | < 50 | < 100 | A (an IC50 ratio greater than or equal to 10 fold) | 50 to 500 | – | – | – | – | – | – |
